# Reference: patent US8563587B2, “Methods and compositions for treating fish diseases” (HaloSource, Inc., priority 2006, dated 2013)
# Experiments:
# [1] = tested on: GlowLite (Hemigrammus erthrozonus); test: Fish mortality, MC in ethanol vs MC tablets (Comparative Example 2); format: in vivo; details: of 11 Glow Lite Tetras, within three hours; 300 mg MC in 95% EtOH/water added at once, 6.0 ppm TAC
# Experimental: (§1) A study was performed in which GlowLite (Hemigrammus erthrozonus) and Black Skirt Tetras (Gymnocorymbus ternetzi) were subjected to treatment with MC dissolved in 95% Ethanol (then diluted with water) and another set of the same fish subjected to MC tablets as described in EXAMPLE 1 dosed to equal levels of MC.
# (§2) Part 1: Four 5-gallon hexagonal fish tanks were set up as follows: • (a) Hex-1: 5 Black Skirt Tetras (Control Tank—0 ppm TAC) • (b) Hex-2: 5 Black Skirt Tetras (Experimental Tank) • (c) Hex-3: 11 Glow Lite Tetras (Control Tank—0 ppm TAC) • (d) Hex-4: 11 Glow Lite Tetras (Experimental Tank)
# (§3) The fish were allowed to acclimate with their surroundings for a period of three days. For the experimental tanks, 300 mg of MC dissolved in 30 g 95% EtOH followed by dilution to 100 mLs total volume with DI water was added. For the control tanks 30 g 95% EtOH diluted to 100 mLs total volume with DI water was added. TAC was measured in the experimental tanks 10 minutes after the addition of the MC solution: HEX-2=7.1 ppm TAC; HEX-4=6.0 ppm TAC. Within three hours, all 11 of the Glow Lite Tetras were dead and 3 out of 5 Black Skirt Tetras were dead.
# (§4) Part 2: Three 5-gallon hexagonal fish tanks were set up as follows: • (a) Hex-1: 5 Black Skirt Tetras • (b) Hex-3: 5 Glow Lite Tetras • (c) Hex-4: 5 Glow Lite Tetras
# (§5) The fish were allowed to acclimate with their surroundings for a period of 4 hours. All tanks began with 0 ppm TAC. Tablets of MC made from 0.11 g MC pressed with 0.89 g MgSO4, with a ⅝″-diameter tablet as described in EXAMPLE 1 were added to each tank as follows: • (a) Hex-1: 5 Black Skirt Tetras—3 tablets on day 1, 4 tablets on day 2 • (b) Hex-3: 5 Glow Lite Tetras—3 tablets on day 1, 3 tablets on day 2 • (c) Hex-4: 5 Glow Lite Tetras—2 tablets on day 1, 2 tablets on day 2
# (§6) Tanks Hex-1 and 2 measured above 6 ppm TAC each day, but took approximately three hours to reach a TAC above 6 ppm. HEX 4 rose to a TAC level of 4.1 ppm TAC within the first day. No fish died throughout the 48-hour experiment.
# [2] = tested on: Black Skirt Tetras (Gymnocorymbus ternetzi); test: as above; format: in vivo; details: 300 mg MC in 95% EtOH/water added at once, 7.1 ppm TAC
# Experimental: as §1, §2, §3, §4, §5, §6
# [3] = TAC measured in the fish tanks of Comparative Example 2; format: physicochemical; details: 10 minutes after addition of 300 mg MC in 95% EtOH diluted to 100 mL
# Experimental: as §3, §5, §6
smiles,measurement,setting,value
"CC1(C)NC(=O)C(C)(C)N1Cl [MC, 1-Chloro-2,2,5,5-tetramethylimidazolidin-4-one]",dead fish,[1],11
same,dead fish,[2]; within 24 hours,the remainder of the Black Skirt Tetras were dead
same,dead fish,[2]; within three hours,3 out of 5
same,TAC in experimental tank,[3]; HEX-2 (Black Skirt Tetras),7.1 ppm TAC
same,TAC in experimental tank,[3]; HEX-4 (Glow Lite Tetras),6.0 ppm TAC
